Broadly, the melting point is the temperature, or range, at which the solid turns liquid.

Several values for one entry are separate records, joined by “and”; a condition that tells them apart may be missing. Equal entries are not always repeated.

Data on 25 compounds can be found in patent US7049443B2, “Amide-containing compound having improved solubility and method of improving the solubility of an amide-containing compound” (Pharmacia & Upjohn Company, priority 2001, dated 2006).

On to `NC(=O)[C@H]1CN(c2ccc([C@H]3CC[S@@+]([O-])CC3)c(F)c2)C(=O)O1` (racemic) [Example 456, (SR)-3-[3-Fluoro-4-(cis-tetrahydro-1-oxido-2H-thiopyran-4-yl)phenyl]-2-oxo-5-oxazolidinecarboxamide], for which the melting point was 279 to 281 °C (dec.).
The same measure for `NC(=O)[C@H]1CN(c2ccc([C@H]3CC[S@+]([O-])CC3)cc2)C(=O)O1` (racemic) [Example 460, (SR)-3-[4-(trans-tetrahydro-1-oxido-2H-thiopyran-4-yl)phenyl]-2-oxo-5-oxazolidinecarboxamide]: 174 to 175 °C.
Then `NC(=O)[C@H]1CN(c2ccc(N3CCOCC3)c(F)c2)C(=O)O1` [Example 435, (5R)-(−)-3-[3-Fluoro-4-(4-morpholinyl)phenyl]-2-oxo-5-oxazolidinecarboxamide], with 185 to 187 °C (dec.); and `CNC(=O)[C@H]1CN(c2ccc(N3CCOCC3)c(F)c2)C(=O)O1` [Example 436, (5R)-(−)-3-[3-Fluoro-4-(4-morpholinyl)phenyl]-N-methyl-2-oxo-5-oxazolidinecarboxamide], with 182 to 183 °C (dec.).
Then `C=CCNC(=O)[C@H]1CN(c2ccc(N3CCOCC3)c(F)c2)C(=O)O1` [Example 437, (5R)-(−)-3-[3-Fluoro-4-(4-morpholinyl)phenyl]-N-allyl-2-oxo-5-oxazolidinecarboxamide], with 167 to 169 °C; and `CCCNC(=O)[C@H]1CN(c2ccc(N3CCOCC3)c(F)c2)C(=O)O1` [Example 438, (5R)-(−)-3-[3-Fluoro-4-(4-morpholinyl)phenyl]-N-propyl-2-oxo-5-oxazolidinecarboxamide], with 165 to 167 °C.
Consider `CONC(=O)[C@H]1CN(c2ccc(N3CCOCC3)c(F)c2)C(=O)O1` [Example 439, (5R)-(−)-3-[3-Fluoro-4-(4-morpholinyl)phenyl]-N-methoxy-2-oxo-5-oxazolidinecarboxamide], for which the melting point is 206 to 208 °C (dec.).
Then `O=C(NO)[C@H]1CN(c2ccc(N3CCOCC3)c(F)c2)C(=O)O1` [Example 440, (5R)-(−)-3-[3-Fluoro-4-(4-morpholinyl)phenyl]-N-hydroxy-2-oxo-5-oxazolidinecarboxamide], with 141 to 143 °C; and `NC(=O)[C@H]1CN(c2ccc(-c3cccnc3)c(F)c2)C(=O)O1` [Example 441, (5R)-(−)-3-[4-(3-Pyridyl)-3-fluorophenyl]-2-oxo-5-oxazolidinecarboxamide], with 240 to 242 °C (dec.).
Then `NC(=O)[C@H]1CN(c2ccc(-c3ccncc3)c(F)c2)C(=O)O1` [Example 442, (5R)-(−)-3-[4-(4-Pyridyl)-3-fluorophenyl]-2-oxo-5-oxazolidinecarboxamide], with 256 to 259 °C (dec.); and `NC(=O)[C@H]1CN(c2ccc(C3=CCOCC3)c(F)c2)C(=O)O1` [Example 443, (5R)-(−)-3-[4-(3,6-Dihydro-2H-pyran-4-yl)-3-fluorophenyl]-2-oxo-5-oxazolidinecarboxamide], with 164 to 169 °C; and `NC(=O)[C@H]1CN(c2ccc(C3CCOCC3)c(F)c2)C(=O)O1` [Example 444, (5R)-(−)-3-[4-(Tetrahydro-2H-pyran-4-yl)-3-fluorophenyl]-2-oxo-5-oxazolidinecarboxamide], with 153 to 156 °C.
Turning to `NC(=O)[C@H]1CN(c2ccc(C3=CC[S+]([O-])CC3)c(F)c2)C(=O)O1` (stereo partly drawn) [Example 445, (5R)-3-[4-(3,6-Dihydro-2H-thiopyran-4-yl)-3-fluorophenyl]-2-oxo-5-oxazolidinecarboxamide S-oxide], the melting point is 182 to 184 °C (dec.).
The same measure for `NC(=O)[C@H]1CN(c2ccc(C3=CCS(=O)(=O)CC3)c(F)c2)C(=O)O1` [Example 446, (5R)-(−)-3-[4-(3,6-Dihydro-2H-thiopyran-4-yl)-3-fluorophenyl]-2-oxo-5-oxazolidinecarboxamide S,S-dioxide]: 206 to 208 °C; for `NC(=O)[C@H]1CN(c2ccc(C3CCS(=O)(=O)CC3)c(F)c2)C(=O)O1` [Example 447, (5R)-(−)-3-[4-(Tetrahydro-2H-thiopyran-4-yl)-3-fluorophenyl]-2-oxo-5-oxazolidinecarboxamide S,S-dioxide]: 231 to 234 °C (dec.) and 229 to 231 °C (dec.); for `NC(=O)[C@H]1CN(c2ccc(N3CCN(C(=O)CO)CC3)c(F)c2)C(=O)O1` [Example 448, (5R)-(−)-3-[3-Fluoro-4-[4-(hydroxyacetyl)-1-piperazinyl]phenyl]-2-oxo-5-oxazolidinecarboxamide]: 232 to 235 °C (dec.).
With `NC(=O)[C@H]1CN(c2cc(F)c(N3CCS(=O)(=O)CC3)c(F)c2)C(=O)O1` [Example 449, (5R)-(−)-3-[4-(Thiomorpholin-4-yl)-3,5-difluorophenyl]-2-oxo-5-oxazolidinecarboxamide S,S-dioxide], the melting point was 245 to 248 °C (dec.).
For `NC(=O)[C@H]1CN(c2cc(F)c(N3CCOCC3)c(F)c2)C(=O)O1` [Example 451, (5R)-(−)-3-[3,5-Difluoro-4-(4-morpholinyl)phenyl]-2-oxo-5-oxazolidinecarboxamide], the melting point was 181 to 183 °C.
Then `NC(=O)[C@H]1CN(c2ccc(N3CCS(=O)(=O)CC3)cc2)C(=O)O1` [Example 452, (5R)-(−)-3-[4-(Thiomorpholin-4-yl)phenyl]-2-oxo-5-oxazolidinecarboxamide S,S-dioxide], with 226 to 228 °C; and `NC(=O)[C@H]1CN(c2ccc(N3CCS(=O)(=O)CC3)c(F)c2)C(=O)O1` [Example 453, (5R)-(−)-3-[3-Fluoro-4-(thiomorpholin-4-yl)phenyl]-2-oxo-5-oxazolidinecarboxamide S,S-dioxide], with 245 to 247 °C (dec.); and `NC(=O)[C@H]1CN(c2ccc(N3CC[S+]([O-])CC3)c(F)c2)C(=O)O1` [Example 454, (5R)-(−)-3-[3-Fluoro-4-(thiomorpholin-4-yl)phenyl]-2-oxo-5-oxazolidinecarboxamide S-oxide], with 264 to 266 °C (dec.).
The same measure for `NC(=O)[C@H]1CN(c2cc(F)c(N3CC[S+]([O-])CC3)c(F)c2)C(=O)O1` [Example 455, (5R)-(−)-3-[3,5-Difluoro-4-(thiomorpholin-4-yl)phenyl]-2-oxo-5-oxazolidinecarboxamide S-oxide]: 273 to 276 °C (dec.); for `NC(=O)[C@H]1CN(c2ccc([C@H]3CC[S@+]([O-])CC3)c(F)c2)C(=O)O1` [Example 457, (5R)-3-[3-Fluoro-4-(trans-tetrahydro-1-oxido-2H-thiopyran-4-yl)phenyl]-2-oxo-5-oxazolidinecarboxamide]: 201 to 203 °C; for `NC(=O)[C@H]1CN(c2ccc(C3CCS(=O)(=O)CC3)cc2)C(=O)O1` [Example 458, (5R)-(−)-3-[4-(tetrahydro-2H-thiopyran-4-yl)phenyl]-2-oxo-5-oxazolidinecarboxamide S,S-dioxide]: 211 to 212 °C.
Turning to `NC(=O)[C@H]1CN(c2ccc([C@H]3CC[S@@+]([O-])CC3)cc2)C(=O)O1` [Example 459, (5R)-3-[4-(cis-tetrahydro-1-oxido-2H-thiopyran-4-yl)phenyl]-2-oxo-S-oxazolidinecarboxamide], the melting point was 269 to 273 °C (dec.).
